Data reported in US20240150377A1, “MODULATORS OF CYSTIC FIBROSIS TRANSMEMBRANE CONDUCTANCE REGULATOR” (VERTEX PHARMACEUTICALS INCORPORATED, priority 2020, published 2024).
Where two headings read alike, the source gives them in different places.

Molecular target: T1, CFTR (Homo sapiens, UniProt P13569, DEL508-508)
T1 construct: endogenous in cells; host or cells: primary human bronchial epithelial cells from CF subjects (F508del/MF-HBE), differentiated at air-liquid interface
Assay: HBE assay: Ussing chamber assay of CFTR-mediated short-circuit currents
Assay type: cell-based
Details: for EC50: read-out: HBE EC50; for Emax: read-out: HBE Max Activity (%); for activation at 10 µM: read-out: HBE Activity at 10 μM (%)
Outline: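 CFTR-mediated Isc (μA/cm²) equals the peak response to apical 20 μM forskolin minus the residual after a 20 μM each BPO/GlyH-101/CFTR inhibitor 172 cocktail, recorded in Ussing chambers at Vhold 0 mV, 37 °C, pH 7.4, with 30 μM apical amiloride. Cells were F508del/MF HBE cultures preincubated 18-24 h with corrector (concentration range or 10 μM) plus 1 μM ivacaftor in 20% human serum.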

T1 sequence (P13569 with tags, fused parts or gaps DEL508-508): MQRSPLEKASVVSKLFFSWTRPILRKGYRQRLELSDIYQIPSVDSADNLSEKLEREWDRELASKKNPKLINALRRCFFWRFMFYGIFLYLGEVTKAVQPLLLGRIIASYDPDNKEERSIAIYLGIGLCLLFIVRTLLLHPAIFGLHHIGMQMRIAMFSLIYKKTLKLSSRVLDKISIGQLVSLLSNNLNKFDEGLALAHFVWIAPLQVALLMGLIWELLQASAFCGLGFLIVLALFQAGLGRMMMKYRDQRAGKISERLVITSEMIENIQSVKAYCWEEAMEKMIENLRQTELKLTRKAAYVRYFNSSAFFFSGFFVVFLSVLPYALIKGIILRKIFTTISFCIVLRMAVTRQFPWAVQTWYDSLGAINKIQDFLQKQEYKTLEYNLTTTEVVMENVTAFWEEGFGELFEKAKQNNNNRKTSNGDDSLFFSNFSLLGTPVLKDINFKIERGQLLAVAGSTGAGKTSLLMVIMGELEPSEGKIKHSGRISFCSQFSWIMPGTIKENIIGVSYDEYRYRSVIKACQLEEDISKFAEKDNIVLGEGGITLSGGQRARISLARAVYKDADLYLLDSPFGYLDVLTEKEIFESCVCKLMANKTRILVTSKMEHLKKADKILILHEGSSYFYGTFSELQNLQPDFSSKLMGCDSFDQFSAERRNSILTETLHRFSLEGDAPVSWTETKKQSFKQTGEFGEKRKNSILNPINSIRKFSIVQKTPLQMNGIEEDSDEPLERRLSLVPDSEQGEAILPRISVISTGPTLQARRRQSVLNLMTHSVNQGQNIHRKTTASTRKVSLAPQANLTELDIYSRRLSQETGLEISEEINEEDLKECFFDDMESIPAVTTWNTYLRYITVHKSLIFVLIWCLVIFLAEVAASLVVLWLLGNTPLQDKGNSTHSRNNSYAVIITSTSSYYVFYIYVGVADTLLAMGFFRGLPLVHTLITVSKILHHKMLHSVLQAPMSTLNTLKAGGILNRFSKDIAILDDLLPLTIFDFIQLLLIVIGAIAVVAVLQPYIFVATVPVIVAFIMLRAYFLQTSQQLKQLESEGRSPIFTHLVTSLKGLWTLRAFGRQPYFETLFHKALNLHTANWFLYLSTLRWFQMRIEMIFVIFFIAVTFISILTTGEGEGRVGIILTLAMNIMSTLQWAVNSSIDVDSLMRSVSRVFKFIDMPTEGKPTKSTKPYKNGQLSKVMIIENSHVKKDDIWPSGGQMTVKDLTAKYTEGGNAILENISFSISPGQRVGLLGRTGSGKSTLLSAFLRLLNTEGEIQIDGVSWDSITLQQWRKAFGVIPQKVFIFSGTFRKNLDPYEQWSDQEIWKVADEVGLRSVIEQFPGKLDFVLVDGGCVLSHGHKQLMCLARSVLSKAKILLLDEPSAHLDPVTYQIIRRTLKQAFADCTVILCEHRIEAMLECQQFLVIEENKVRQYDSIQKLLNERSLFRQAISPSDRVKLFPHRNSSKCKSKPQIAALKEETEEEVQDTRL

SMILES | EC50 (Table 11) | Emax (Table 11) | further results
Cc1cccc(C)c1-c1cc2nc(n1)NS(=O)(=O)c1cccc(c1)C(=O)N(Cc1ncc(C3CCCC3)cn1)[C@H](CC(C)(C)C)CO2 [Compound 638] | 1000 to 3000 nM | > 60% | 
COCCN1CCC(CN2C(=O)c3cccc(c3)S(=O)(=O)Nc3nc(cc(-c4c(C)cccc4C)n3)OC[C@H]2CC(C)(C)C)C1=O (some centres unmarked) [Compound 639] | < 1000 nM | > 60% | 
COCCN1CCC(CN2C(=O)c3cccc(c3)S(=O)(=O)Nc3nc(cc(-c4c(C)cccc4C)n3)OC[C@H]2CC(C)(C)C)C1=O (some centres unmarked) [Compound 640] | < 1000 nM |  | 
COCCN1CCCC(CN2C(=O)c3cccc(c3)S(=O)(=O)Nc3nc(cc(-c4c(C)cccc4C)n3)OC[C@H]2CC(C)(C)C)C1=O (some centres unmarked) [Compound 641] | 1000 to 3000 nM | > 60% | 
Cc1cccc(C)c1-c1cc2nc(n1)NS(=O)(=O)c1cccc(c1)C(=O)N(Cc1ncc(C3CC3)cn1)[C@H](CC(C)(C)C)CO2 [Compound 642] | 1000 to 3000 nM | > 60% | 
Cc1cccc(C)c1-c1cc2nc(n1)NS(=O)(=O)c1cccc(c1)C(=O)N(Cc1ncc(C#N)cn1)[C@H](CC(C)(C)C)CO2 [Compound 643] | < 1000 nM | > 60% | 
Cc1cccc(C)c1-c1cc2nc(n1)NS(=O)(=O)c1cccc(c1)C(=O)N(Cc1ncc(C3CCCCC3)cn1)[C@H](CC(C)(C)C)CO2 [Compound 644] | 1000 to 3000 nM | > 60% | 
Cc1cccc(C)c1-c1cc2nc(n1)NS(=O)(=O)c1cccc(c1)C(=O)N(Cc1nccc(N)n1)[C@H](CC(C)(C)C)CO2 [Compound 645] | < 1000 nM | > 60% | 
Cc1cccc(C)c1-c1cc2nc(n1)NS(=O)(=O)c1cccc(c1)C(=O)N(Cc1nccc(NCC(C)(C)C)n1)[C@H](CC(C)(C)C)CO2 [Compound 646] | < 1000 nM | > 60% | 
CNc1ccnc(CN2C(=O)c3cccc(c3)S(=O)(=O)Nc3nc(cc(-c4c(C)cccc4C)n3)OC[C@H]2CC(C)(C)C)n1 [Compound 647] | < 1000 nM | > 60% | 
Cc1cccc(C)c1-c1cc2nc(n1)NS(=O)(=O)c1cccc(c1)C(=O)N(Cc1nccc(N3CCC(C)(C)C3)n1)[C@H](CC(C)(C)C)CO2 [Compound 648] | < 1000 nM | > 60% | 
Cc1cccc(C)c1-c1cc2nc(n1)NS(=O)(=O)c1cccc(c1)C(=O)N(Cc1nccc(N(C)C)n1)[C@H](CC(C)(C)C)CO2 [Compound 649] | < 1000 nM | > 60% | 
Cc1cccc(C)c1-c1cc2nc(n1)NS(=O)(=O)c1cccc(c1)C(=O)N(Cc1nccc(N(C)CC(C)(C)C)n1)[C@H](CC(C)(C)C)CO2 [Compound 650] | < 1000 nM | > 60% | 
Cc1cccc(C)c1-c1cc2nc(n1)NS(=O)(=O)c1cccc(c1)C(=O)N(Cc1nccc(N3CCOCC3)n1)[C@H](CC(C)(C)C)CO2 [Compound 651] | < 1000 nM | > 60% | 
Cc1cccc(C)c1-c1cc2nc(n1)NS(=O)(=O)c1cccc(c1)C(=O)N(CC1CCN(CCC(C)(C)C)C1=O)[C@H](CC(C)(C)C)CO2 (some centres unmarked) [Compound 652] | < 1000 nM | > 60% | activation at 10 µM (Table 11): > 60%
Cc1cccc(C)c1-c1cc2nc(n1)NS(=O)(=O)c1cccc(c1)C(=O)N(CC1CCN(CCC(C)(C)C)C1=O)[C@H](CC(C)(C)C)CO2 (some centres unmarked) [Compound 653] | < 1000 nM |  | 
Cc1cccc(C)c1-c1cc2nc(n1)NS(=O)(=O)c1cccc(c1)C(=O)N(CC1CCCN(CCC(C)(C)C)C1=O)[C@H](CC(C)(C)C)CO2 (some centres unmarked) [Compound 654] | < 1000 nM | > 60% | 
Cc1cccc(C)c1-c1cc2nc(n1)NS(=O)(=O)c1cccc(c1)C(=O)N(CC1CCCN(CCC(C)(C)C)C1=O)[C@H](CC(C)(C)C)CO2 (some centres unmarked) [Compound 655] | < 1000 nM |  | 
Cc1cccc(C)c1-c1cc2nc(n1)NS(=O)(=O)c1cccc(c1)C(=O)N(Cc1nccc(OC(C)C)n1)[C@H](CC(C)(C)C)CO2 [Compound 656] | < 1000 nM | > 60% | 
COCCN(C)c1ccnc(CN2C(=O)c3cccc(c3)S(=O)(=O)Nc3nc(cc(-c4c(C)cccc4C)n3)OC[C@H]2CC(C)(C)C)n1 [Compound 657] | < 1000 nM | > 60% | 
Cc1cccc(C)c1-c1cc2nc(n1)NS(=O)(=O)c1cccc(c1)C(=O)N(Cc1ncc(OC3CCC3)cc1Cl)[C@H](CC(C)(C)C)CO2 [Compound 690] |  |  | EC50 (Table 13): < 1000 nM; Emax (Table 13): > 60%
Cc1cccc(C)c1-c1cc2nc(n1)NS(=O)(=O)c1cccc(c1)C(=O)N(Cc1ncc(OC(C)C)cc1Cl)[C@H](CC(C)(C)C)CO2 [Compound 691] |  |  | EC50 (Table 13): < 1000 nM; Emax (Table 13): > 60%
Cc1cccc(C)c1-c1cc2nc(n1)NS(=O)(=O)c1cccc(c1)C(=O)N(Cc1cnc(N3CCOCC3)s1)[C@H](CC(C)(C)C)CO2 [Compound 693] |  |  | activation at 10 µM (Table 12): 30 to 60%

SMILES | EC50 (Table 11) | Emax (Table 11) | further results
Cc1cccc(C)c1-c1cc2nc(n1)NS(=O)(=O)c1cccc(c1)C(=O)N(Cc1cncc(N(C)CC(C)(C)C)n1)[C@H](C(C)C)CO2 [Compound 694] |  |  | EC50 (Table 12): < 1000 nM; Emax (Table 12): > 60%
Cc1cccc(C)c1-c1cc2nc(n1)NS(=O)(=O)c1cccc(c1)C(=O)N(Cc1ncc(N3CCC(C)(C)C3)cn1)[C@H](C(C)C)CO2 [Compound 695] |  |  | activation at 10 µM (Table 12): > 600%; EC50 (Table 12): < 1000 nM; Emax (Table 12): < 30%
Cc1cccc(C)c1-c1cc2nc(n1)NS(=O)(=O)c1cccc(c1)C(=O)N(Cc1ncc(OC(C)C)cn1)[C@H](C(C)C)CO2 [Compound 696] |  |  | activation at 10 µM (Table 12): > 600%; EC50 (Table 12): < 1000 nM; Emax (Table 12): < 30%
Cc1cccc(C)c1-c1cc2nc(n1)NS(=O)(=O)c1cccc(c1)C(=O)N(Cc1ccc3nc(NC(=O)CC(C)C)sc3c1)[C@H](CC(C)(C)C)CO2 [Compound 697] |  |  | activation at 10 µM (Table 12): > 600%
Cc1cccc(C)c1-c1cc2nc(n1)NS(=O)(=O)c1cccc(c1)C(=O)N(Cc1nccnc1C)[C@H](CC(C)(C)C)CO2 [Compound 698] |  |  | activation at 10 µM (Table 12): > 600%
Cc1cccc(C)c1-c1cc2nc(n1)NS(=O)(=O)c1cccc(c1)C(=O)N(Cc1cn3ccccc3n1)[C@H](CC(C)(C)C)CO2 [Compound 699] |  |  | EC50 (Table 12): < 1000 nM; Emax (Table 12): > 60%
Cc1cccc(C)c1-c1cc2nc(n1)NS(=O)(=O)c1cccc(c1)C(=O)N(Cc1nc3ccccn3c1C)[C@H](CC(C)(C)C)CO2 [Compound 700] |  |  | activation at 10 µM (Table 12): > 600%
Cc1cccc(C)c1-c1cc2nc(n1)NS(=O)(=O)c1cccc(c1)C(=O)N(Cc1nc(C3CC3)cs1)[C@H](CC(C)(C)C)CO2 [Compound 701] |  |  | activation at 10 µM (Table 12): > 600%
Cc1cccc(C)c1-c1cc2nc(n1)NS(=O)(=O)c1cccc(c1)C(=O)N(Cc1nc(C(C)(C)C)cs1)[C@H](CC(C)(C)C)CO2 [Compound 702] |  |  | activation at 10 µM (Table 12): > 600%
Cc1cccc(C)c1-c1cc2nc(n1)NS(=O)(=O)c1cccc(c1)C(=O)N(Cc1coc(C(C)C)n1)[C@H](CC(C)(C)C)CO2 [Compound 703] |  |  | EC50 (Table 12): < 1000 nM; Emax (Table 12): > 60%
Cc1cccc(C)c1-c1cc2nc(n1)NS(=O)(=O)c1cccc(c1)C(=O)N(Cc1nc(C(C)C)cs1)[C@H](CC(C)(C)C)CO2 [Compound 704] |  |  | EC50 (Table 12): < 1000 nM; Emax (Table 12): > 60%
Cc1cccc(C)c1-c1cc2nc(n1)NS(=O)(=O)c1cccc(c1)C(=O)N(Cc1ncc(C(C)C)s1)[C@H](CC(C)(C)C)CO2 [Compound 705] |  |  | EC50 (Table 12): < 1000 nM; Emax (Table 12): > 60%
Cc1cccc(C)c1-c1cc2nc(n1)NS(=O)(=O)c1cccc(c1)C(=O)N(Cc1ccc(C3CC(C)(C)CCO3)cn1)[C@H](CC(C)(C)C)CO2 (some centres unmarked) [Compound 706] |  |  | EC50 (Table 12): < 1000 nM; Emax (Table 12): > 60%
Cc1cccc(C)c1-c1cc2nc(n1)NS(=O)(=O)c1cccc(c1)C(=O)N(Cc1ccc(C3CCCCO3)cn1)[C@H](CC(C)(C)C)CO2 (some centres unmarked) [Compound 707] |  |  | EC50 (Table 12): < 1000 nM; Emax (Table 12): > 60%
Cc1cccc(C)c1-c1cc2nc(n1)NS(=O)(=O)c1cccc(c1)C(=O)N(Cc1ncc(N3CCC4(CC3)CC4)cn1)[C@H](CC(C)(C)C)CO2 [Compound 708] | 1000 to 3000 nM | > 60% | 
Cc1cccc(C)c1-c1cc2nc(n1)NS(=O)(=O)c1cccc(c1)C(=O)N(Cc1cccc(N3[C@H](C)CC[C@@H]3C)n1)[C@H](CC(C)(C)C)CO2 [Compound 709] | < 1000 nM | 30 to 60% | 
Cc1cccc(C)c1-c1cc2nc(n1)NS(=O)(=O)c1cccc(c1)C(=O)N(Cc1cccc(N3CCC[C@@H]3C)n1)[C@H](CC(C)(C)C)CO2 [Compound 710] | < 1000 nM | > 60% | 
CCN(CC)c1cccc(CN2C(=O)c3cccc(c3)S(=O)(=O)Nc3nc(cc(-c4c(C)cccc4C)n3)OC[C@H]2CC(C)(C)C)n1 [Compound 711] | 1000 to 3000 nM | > 60% | 
Cc1cccc(C)c1-c1cc2nc(n1)NS(=O)(=O)c1cccc(c1)C(=O)N(CC1CN(CC(C)(C)C)CCO1)[C@H](CC(C)(C)C)CO2 (some centres unmarked) [Compound 712] | < 1000 nM | > 60% | 
Cc1cccc(C)c1-c1cc2nc(n1)NS(=O)(=O)c1cccc(c1)C(=O)N(CC1CN(C(=O)C(C)(C)C)CCO1)[C@H](CC(C)(C)C)CO2 (some centres unmarked) [Compound 714] | < 1000 nM | > 60% | 
CCN(C)c1cccc(CN2C(=O)c3cccc(c3)S(=O)(=O)Nc3nc(cc(-c4c(C)cccc4C)n3)OC[C@H]2CC(C)(C)C)n1 [Compound 715] | 1000 to 3000 nM | > 60% | 
Cc1cccc(C)c1-c1cc2nc(n1)NS(=O)(=O)c1cccc(c1)C(=O)N(Cc1ncc(N3C[C@H](C)C[C@@H](C)C3)cn1)[C@H](CC(C)(C)C)CO2 [Compound 716] | 3000 to 30000 nM | > 60% | 
Cc1cccc(C)c1-c1cc2nc(n1)NS(=O)(=O)c1cccc(c1)C(=O)N(Cc1ncc(N3CC4CC4C3)cn1)[C@H](CC(C)(C)C)CO2 (some centres unmarked) [Compound 717] | 1000 to 3000 nM | > 60% | 
